{"source": "patent US7202276B2", "about": "“Use of 13-HODE as a regulator of vascular biocompatibility and an inhibitor of cell hyperplasia” (1411198 Ontario Limited, priority 2000, dated 2007)", "key": {"Sarcoma 180 tumors": {"test_system": "Sarcoma 180 tumors", "details": "given orally; cited from earlier work"}, "[1]": {"assay": "Cell free plasma 13-HODE levels in rabbits treated orally with 13-HODE", "type": "in vivo, New Zealand white rabbits", "description": "(§1) New Zealand white rabbits (half males/half females; 2.5–2.9 kg) were used throughout. Rabbits were treated with 100, 400 or 1000 μg/kg/day of purified 13-HODE suspended in corn oil or ethyl-eicosapentaenoic acid (EPA), or with an equivolume of either suspending vehicle (total volume 1 ml) for 7 days. Serial blood samples were collected before, during and after treatment to assess the levels of 13-HODE in plasma. On day 7, the treatments were stopped. At that time, the rabbits were anaesthetised with a combination of Atravet, Ketamine, Vetrepham and glycopyrolate, given subcutaneously. Both carotid arteries of anaesthetised rabbits were isolated between 2 temporary ligatures, first by applying the proximal ligature, then allowing the blood to drain from the segment, and then applying the distal ligature. A 24-gauge angiocath attached to tubing filled with sterile saline and connected to a pressure manometer, was inserted into the isolated segment. Then the segment was filled with the saline to a pressure of 600 mm Hg which was maintained for 5 minutes. The pressure was relieved, and the angiocath and ligatures were removed, thereby allowing for blood flow restoration. Cessation of bleeding from the needle puncture site was achieved within 3 minutes without any manual manipulation. The incisions were sutured closed with 000 proline. The rabbits were injected intramuscularly with Temgesic to minimize any pain and with 12.5 mg Baytril as an antibiotic, and then allowed to recover. This injury procedure results in endothelial denudation and the exposure of a thrombogenic surface within 1 hour of restoration of blood flow, followed by SMC proliferation and intimal hyperplasia, which plateaus at □ 4 weeks and which is sustained for ≧12 weeks (Buchanan M R, Brister S J: 1998: Buchanan M R et al. 1999).\nTwo, four or twelve weeks later, the rabbits were re-anaesthetised and their injured carotid arteries were again isolated. Segments of injured and uninjured carotid artery were harvested and processed histologically to assess VW hyperplasia. Other VW segments and blood samples were collected and processed for VW and plasma 13-HODE levels."}, "[2]": {"assay": "Stability of 13-HODE dosage forms", "type": "physicochemical", "details": "dissolved into a triglyceride oil carrier or an ester", "description": "A real problem is presented by the fact that active daily doses of 13-HODE are in the 50 to 1,000 μg/kg/day range. […] That translates into a 7 mg/day dose for a 70 kg person. Since doses for humans are often considerably lower than doses for animals because of a weight/body surface area scaling, a daily dose of as little as 5 mg or less is really possible. Formulating an oily liquid is such small doses is a problem. It could be absorbed into tabletting materials and tabletted and coated, or micro-encapsulated by methods well known to those skilled in the art. […] Other triglyceride oils such as vegetable oil, including sunflower, safflower, soy, evening primrose, borage, coconut or palm oil, or cottonseed, rapeseed, olive, fish body or fish liver oils may all be used for this purpose. Particularly useful esters for this purpose are esters of fatty acids with 16–26 carbon atoms and one or more double bonds in the chain."}, "[3]": {"assay": "Vessel wall (VW) 13-HODE levels in rabbits treated orally with 13-HODE", "type": "in vivo, New Zealand white rabbits", "details": "suspended in ethyl-EPA, all treatment levels", "description": "as §1, with “The rabbits were injected intramuscularly with Temgesic to minimize any pain and with 12.5 mg Baytril as an antibiotic, and then allowed to recover. This injury procedure results in endothelial denudation and the exposure of a thrombogenic surface within 1 hour of restoration of blood flow, followed by SMC proliferation and intimal hyperplasia, which plateaus at □ 4 weeks and which is sustained for ≧12 weeks (Buchanan M R, Brister S J: 1998: Buchanan M R et al. 1999).” left out"}, "[4]": {"test_system": "VW intimal hyperplasia of injured carotid arteries", "assay": "Intimal hyperplasia after carotid artery pressure injury in rabbits", "type": "in vivo, New Zealand white rabbits", "details": "7 day course of 100 μg/kg/day, in either corn oil or ethyl-EPA, p<0.001", "description": "as §1, with “The rabbits were injected intramuscularly with Temgesic to minimize any pain and with 12.5 mg Baytril as an antibiotic, and then allowed to recover. This injury procedure results in endothelial denudation and the exposure of a thrombogenic surface within 1 hour of restoration of blood flow, followed by SMC proliferation and intimal hyperplasia, which plateaus at □ 4 weeks and which is sustained for ≧12 weeks (Buchanan M R, Brister S J: 1998: Buchanan M R et al. 1999).” left out"}, "[5]": {"details": "stroke, myocardial infarction, transient ischemic attacks; cited from earlier work"}, "[6]": {"test_system": "platelet/injured VW interactions", "details": "dose comparable to that used clinically; cited from earlier work"}, "intimal SMC hyperplasia": {"test_system": "intimal SMC hyperplasia", "details": "1 mg/kg/day for 7 days before VW injury, 4 weeks after VW injury; cited from earlier work"}, "[7]": {"test_system": "platelet/injured VW interactions", "details": "3.2 gm daily for 30 days; cited from earlier work"}, "[8]": {"details": "3.2 gm daily (20 capsules) for 30 days; cited from earlier work"}}, "note": "Where two headings read alike, the source gives them in different places.", "data": [{"molecule": "CCCCC/C=C\\C=C\\C(O)CCCCCCCC(=O)O", "note": "(stereo not shown) [9-HODE, 9-hydroxy-10(E)-12(Z) octadecadienoic acid]", "values": [{"measurement": "minimum effective dose for inhibiting the rate of tumour growth", "setting": "Sarcoma 180 tumors", "value": 55, "unit": "mg/kg/day"}]}, {"molecule": "CCCCCC(O)/C=C/C=C\\CCCCCCCC(=O)O", "note": "(stereo not shown) [13-HODE, 13-hydroxyoctadeca-9Z, 11E-dienoic acid]", "values": [{"measurement": "time to significantly elevated cell-free plasma 13-HODE level", "setting": "[1]; 1,000 μg/kg/day oral", "value": "≤ 3", "unit": "days"}, {"measurement": "time cell-free plasma 13-HODE level remained elevated", "setting": "[1]; 1,000 μg/kg/day oral, treatment stopped after 7 days", "value": 4, "unit": "weeks"}, {"measurement": "effect on plasma 13-HODE levels of increasing the dose", "setting": "[1]; 1,000 μg/kg/day vs 100 μg/kg/day, corn oil", "value": "no further effect"}, {"measurement": "increase in the plasma 13-HODE levels", "setting": "[1]; after 7 days of oral 100 μg/kg/day, suspended in corn oil", "value": "three-fold increase"}, {"measurement": "half life", "setting": "[1]; orally administered", "value": "long half life"}, {"measurement": "oral absorption", "setting": "[1]; orally administered", "value": "well absorbed"}, {"measurement": "absolute levels of plasma 13-HODE, compared with corn oil", "setting": "[1]; suspended in ethyl-EPA, all treatment levels", "value": "lower in all treatment levels tested"}, {"measurement": "stability of the dosage form", "setting": "[2]", "value": "stable without degradation"}, {"measurement": "absolute levels of VW 13-HODE, compared with corn oil", "setting": "[3]", "value": "somewhat lower at all treatment levels tested"}, {"measurement": "intimal VW hyperplasia", "setting": "[4]", "value": "significantly inhibited"}]}, {"molecule": "CC(=O)Oc1ccccc1C(=O)O", "note": "[ASA]", "values": [{"measurement": "overall risk reduction", "setting": "[5]", "value": "~25", "unit": "%"}]}, {"molecule": "OCCN(CCO)c1nc(N2CCCCC2)c2nc(N(CCO)CCO)nc(N3CCCCC3)c2n1", "note": "[Persantine]", "values": [{"measurement": "decrease in platelet/injured VW interactions", "setting": "[6]", "value": "> 2", "unit": "fold"}, {"measurement": "SMC hyperplasia", "setting": "intimal SMC hyperplasia", "value": "inhibited"}]}, {"molecule": "CCCCC/C=C\\C/C=C\\CCCCCCCC(=O)O", "note": "[linoleic acid, Octa-deca-9Z, 12Z-dienoic acid]", "values": [{"measurement": "decrease in platelet/injured VW interactions", "setting": "[7]", "value": "> 2", "unit": "fold"}, {"measurement": "increase in VW 13-HODE levels", "setting": "[8]", "value": 2, "unit": "fold"}]}]}
